Reference: PubChem BioAssay AID1963983 (Molecular Pharmacology Branch, DTP, NCI, 2024)

Test system: 186277-243-T-J2-PDC multi-cell spheroid viability
Test: Anticancer human tumor 186277-243-T-J2-PDC patient-derived colon adenocarcinoma cell line growth inhibition [PI3K]
Conditions: for IC50: curve of first compound; for viability, T/C: stronger effect = lower value
From the text: Combinatorial screen of targeted agents with the PI3K inhibitors inavolisib, alpelisib, duvelisib, and copanlisib in multi-cell type tumor spheroids
A high-throughput screen of multi-cell type tumor spheroids was designed to identify active combinations of targeted small molecules and PI3K pathway inhibitors. Complex spheroids include a stromal component modeled by human endothelial cells (HUVEC) and fibroblasts modeled by human mesenchymal stem cells (MSCs). The concentration ranges selected for each drug and investigational agent were based upon clinically achievable concentrations if the clinical Cmax of the agent was known.
Compounds. The drugs and investigational agents: inavolisib (NSC800729), alpelisib (NSC765974), duvelisib (NSC772469), copanlisib (NSC816437), ipatasertib (NSC767898), afuresertib (NSC778305), talazoparib (NSC767125), sapanisertib (NSC764658), selumetinib (NSC741078), tovorafenib (DAY101, NSC766906), vemurafenib (NSC761431), ravoxertinib (NSC781343), sotorasib (NSC818433), MRTX1133 (NSC 836407), abemaciclib (NSC 768073), palbociclib (NSC758247), venetoclax (NSC 766270), SY5609 (NSC837396), enzalutamide (NSC755605), and darolutamide (NSC825331), were obtained from the National Cancer Institute (NCI) Developmental Therapeutics Program Chemical Repository. The FDA-approved anticancer drug set is available from the NCI Developmental Therapeutics Program. […] The stock solutions were prepared in dimethyl sulfoxide (DMSO, Sigma-Aldrich, St. Louis, MO, cat. D2650) at 800-fold the tested concentration and stored at -70 degrees C prior to their use. All drugs and investigational agents were tested over a range starting from a high concentration at or near the clinical Cmax and decreasing in half-log increments. If the clinical Cmax for an agent had not been determined, the highest concentration tested was 10 microM.
Cell Culture. All cells were maintained in an incubator at 37 degrees C and 5% CO2 with 95% humidity. The PDC lines were cultured according to standard operating procedures established by the NCI PDMR (https://pdmr.cancer.gov/sops/default.htm). All PDCs were thawed and cultured in Matrigel-coated flasks prepared with a working solution of 1X Ham's F-12 nutrient mix, without supplementation (Invitrogen, Waltham, MA, cat. 11765054), 100 U/mL penicillin-streptomycin (Invitrogen, cat. 15140122), and 2.5% Matrigel (Corning Inc., Corning, NY, cat. 354248) for the first three passages. The 354836-022-R-J1-PDC, 475296-252-R-J1-PDC, and 997726-040-R-J2-PDC lines were cultured in 6A media, which includes advanced DMEM/F-12 (Thermo Fisher Scientific, cat. 12634028), 10 mM HEPES (Thermo Fisher Scientific, cat. 15630080), 1X GlutaMAX supplement (Thermo Fisher Scientific, cat. 35050061), 0.1 mg/mL primocin (InvivoGen, San Diego, CA, cat. ant-pm-2), 10% defined fetal bovine serum, heat inactivated (HyClone Laboratories Inc., Logan, UT, cat. SH30070.03HI), 50% L-WRN conditioned media (ATCC, cat. CRL-3276), 1.25 mM N-Acetyl-L-cysteine (Sigma-Aldrich, cat. A9165), 10 mM nicotinamide (Sigma-Aldrich, cat. N0636), 1X B-27 supplement (Thermo Fisher Scientific, cat. 17504044), 1X N-2 supplement (Thermo Fisher Scientific, cat. 17502048), and 10 microM Y-27632 dihydrochloride (Tocris Bioscience, Bristol, United Kingdom, cat. 1254). The 624824-186-R-J2-PDC line was cultured in 6C/Colon 1B media, which includes all 6A media components plus 50 ng/mL human EGF recombinant protein (Thermo Fisher Scientific, cat. PHG0311). […]

[1] = second compound 0.00316 µM, first compound 0.0316 µM
[2] = second compound 0.00316 µM, first compound 0.1 µM
[3] = second compound 0.01 µM, first compound 0.0316 µM
[4] = second compound 0.01 µM, first compound 0.1 µM
[5] = second compound 0.0316 µM, first compound 0.0316 µM
[6] = second compound 0.0316 µM, first compound 0.1 µM
[7] = second compound 0.1 µM, first compound 0.0316 µM
[8] = second compound 0.1 µM, first compound 0.1 µM
[9] = second compound 0.316 µM, first compound 0.0316 µM
[10] = second compound 0.316 µM, first compound 0.1 µM
[11] = second compound 1 µM, first compound 0.0316 µM
[12] = second compound 1 µM, first compound 0.1 µM
[13] = second compound 0.00316 µM, first compound 0.316 µM
[14] = second compound 0.00316 µM, first compound 1 µM
[15] = second compound 0.00316 µM, first compound 3.16 µM
[16] = second compound 0.00316 µM, first compound 10 µM
[17] = second compound 0.01 µM, first compound 0.316 µM
[18] = second compound 0.01 µM, first compound 1 µM
[19] = second compound 0.01 µM, first compound 3.16 µM
[20] = second compound 0.01 µM, first compound 10 µM
[21] = second compound 0.0316 µM, first compound 0.316 µM
[22] = second compound 0.0316 µM, first compound 1 µM
[23] = second compound 0.0316 µM, first compound 3.16 µM
[24] = second compound 0.0316 µM, first compound 10 µM
[25] = second compound 0.1 µM, first compound 0.316 µM
[26] = second compound 0.1 µM, first compound 1 µM
[27] = second compound 0.1 µM, first compound 3.16 µM
[28] = second compound 0.1 µM, first compound 10 µM
[29] = second compound 0.316 µM, first compound 0.316 µM
[30] = second compound 0.316 µM, first compound 1 µM
[31] = second compound 0.316 µM, first compound 3.16 µM
[32] = second compound 0.316 µM, first compound 10 µM
[33] = second compound 1 µM, first compound 0.316 µM
[34] = second compound 1 µM, first compound 1 µM
[35] = second compound 1 µM, first compound 3.16 µM
[36] = second compound 1 µM, first compound 10 µM
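Also: spheroids exposed to compounds for seven days before viability reading.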
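For viability, T/C in this document: 100% = DMSO vehicle control viability.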

SMILES: CC(=O)c1c(C)c2cnc(Nc3ccc(N4CCNCC4)cn3)nc2n(C2CCCC2)c1=O + COc1c(OCCCN2CCOCC2)ccc2c3n(c(=NC(=O)c4cnc(N)nc4)nc12)CCN3
- IC50 (second compound 0.00316 µM): > 100 nM
- IC50 (second compound 0.01 µM): > 100 nM
- IC50 (second compound 0.0316 µM): 57.4 nM
- IC50 (second compound 0.1 µM): < 0.316 nM
- IC50 (second compound 0.316 µM): < 0.316 nM
- IC50 (second compound 1 µM): < 0.316 nM
- viability, T/C (second compound 0.00316 µM, first compound 0.000316 µM): 101%
- viability, T/C (second compound 0.00316 µM, first compound 0.001 µM): 107%
- viability, T/C (second compound 0.00316 µM, first compound 0.00316 µM): 97.3%
- viability, T/C (second compound 0.00316 µM, first compound 0.01 µM): 94.9%
- viability, T/C [1]: 112%
- viability, T/C [2]: 113%
- viability, T/C (second compound 0.01 µM, first compound 0.000316 µM): 110%
- viability, T/C (second compound 0.01 µM, first compound 0.001 µM): 102%
- viability, T/C (second compound 0.01 µM, first compound 0.00316 µM): 87.9%
- viability, T/C (second compound 0.01 µM, first compound 0.01 µM): 91.7%
- viability, T/C [3]: 117%
- viability, T/C [4]: 99.5%
- viability, T/C (second compound 0.0316 µM, first compound 0.000316 µM): 64.2%
- viability, T/C (second compound 0.0316 µM, first compound 0.001 µM): 67.2%
- viability, T/C (second compound 0.0316 µM, first compound 0.00316 µM): 68.8%
- viability, T/C (second compound 0.0316 µM, first compound 0.01 µM): 58.9%
- viability, T/C [5]: 51.3%
- viability, T/C [6]: 47.2%
- viability, T/C (second compound 0.1 µM, first compound 0.000316 µM): 15.6%
- viability, T/C (second compound 0.1 µM, first compound 0.001 µM): 14.4%
- viability, T/C (second compound 0.1 µM, first compound 0.00316 µM): 13.9%
- viability, T/C (second compound 0.1 µM, first compound 0.01 µM): 17.4%
- viability, T/C [7]: 11.6%
- viability, T/C [8]: 13.2%
- viability, T/C (second compound 0.316 µM, first compound 0.000316 µM): 3.72%
- viability, T/C (second compound 0.316 µM, first compound 0.001 µM): 3.94%
- viability, T/C (second compound 0.316 µM, first compound 0.00316 µM): 6.08%
- viability, T/C (second compound 0.316 µM, first compound 0.01 µM): 4.53%
- viability, T/C [9]: 4.8%
- viability, T/C [10]: 5.23%
- viability, T/C (second compound 1 µM, first compound 0.000316 µM): 3.84%
- viability, T/C (second compound 1 µM, first compound 0.001 µM): 2.22%
- viability, T/C (second compound 1 µM, first compound 0.00316 µM): 3.44%
- viability, T/C (second compound 1 µM, first compound 0.01 µM): 3.39%
- viability, T/C [11]: 2.44%
- viability, T/C [12]: 1.63%

SMILES: CNC(=O)c1ccc(N2C(=S)N(c3ccc(C#N)c(C(F)(F)F)c3)C(=O)C2(C)C)cc1F + CC(Nc1ccc2c(c1)OCCn1cc(N3C(=O)OCC3C(F)F)nc1-2)C(N)=O
- IC50 (second compound 0.00316 µM): > 10000 nM
- IC50 (second compound 0.01 µM): > 10000 nM
- IC50 (second compound 0.0316 µM): > 10000 nM
- IC50 (second compound 0.1 µM): > 10000 nM
- IC50 (second compound 0.316 µM): > 10000 nM
- IC50 (second compound 1 µM): 356 nM
- viability, T/C [1]: 109%
- viability, T/C [2]: 95.8%
- viability, T/C [13]: 90.8%
- viability, T/C [14]: 98%
- viability, T/C [15]: 109%
- viability, T/C [16]: 92.2%
- viability, T/C [3]: 98%
- viability, T/C [4]: 83.8%
- viability, T/C [17]: 99.3%
- viability, T/C [18]: 89.4%
- viability, T/C [19]: 93.7%
- viability, T/C [20]: 106%
- viability, T/C [5]: 110%
- viability, T/C [6]: 111%
- viability, T/C [21]: 94.1%
- viability, T/C [22]: 113%
- viability, T/C [23]: 113%
- viability, T/C [24]: 99.2%
- viability, T/C [7]: 105%
- viability, T/C [8]: 95.5%
- viability, T/C [25]: 100%
- viability, T/C [26]: 112%
- viability, T/C [27]: 90.2%
- viability, T/C [28]: 86.1%
- viability, T/C [9]: 86.6%
- viability, T/C [10]: 80%
- viability, T/C [29]: 68.5%
- viability, T/C [30]: 79.4%
- viability, T/C [31]: 73.7%
- viability, T/C [32]: 63.4%
- viability, T/C [11]: 58%
- viability, T/C [12]: 50.4%
- viability, T/C [33]: 45.1%
- viability, T/C [34]: 51.6%
- viability, T/C [35]: 49.6%
- viability, T/C [36]: 38.5%

SMILES: CC(Cn1ccc(-c2ccc(C#N)c(Cl)c2)n1)NC(=O)c1cc(C(C)O)[nH]n1 (stereo unspecified) + COc1c(OCCCN2CCOCC2)ccc2c3n(c(=NC(=O)c4cnc(N)nc4)nc12)CCN3
- IC50 (second compound 0.00316 µM): > 10000 nM
- IC50 (second compound 0.01 µM): > 10000 nM
- IC50 (second compound 0.0316 µM): > 10000 nM
- IC50 (second compound 0.1 µM): < 31.6 nM
- IC50 (second compound 0.316 µM): < 31.6 nM
- IC50 (second compound 1 µM): < 31.6 nM
- viability, T/C [1]: 94.2%
- viability, T/C [2]: 92.1%
- viability, T/C [13]: 101%
- viability, T/C [14]: 105%
- viability, T/C [15]: 116%
- viability, T/C [16]: 86.9%
- viability, T/C [3]: 99.2%
- viability, T/C [4]: 100%
- viability, T/C [17]: 101%
- viability, T/C [18]: 108%
- viability, T/C [19]: 93.3%
- viability, T/C [20]: 90.1%
- viability, T/C [5]: 74.7%
- viability, T/C [6]: 74.9%
- viability, T/C [21]: 69.2%
- viability, T/C [22]: 70.9%
- viability, T/C [23]: 75.5%
- viability, T/C [24]: 58%
- viability, T/C [7]: 16.7%
- viability, T/C [8]: 17.3%
- viability, T/C [25]: 17.4%
- viability, T/C [26]: 15.9%
- viability, T/C [27]: 19%
- viability, T/C [28]: 17%
- viability, T/C [9]: 6.31%
- viability, T/C [10]: 6.68%
- viability, T/C [29]: 3.61%
- viability, T/C [30]: 6.24%
- viability, T/C [31]: 6.1%
- viability, T/C [32]: 4.81%
- viability, T/C [11]: 3.61%
- viability, T/C [12]: 3.8%
- viability, T/C [33]: 2.93%
- viability, T/C [34]: 2.25%
- viability, T/C [35]: 3.36%
- viability, T/C [36]: 2.45%
